# Experimental data reported in PubChem BioAssay AID2060483 (Molecular Pharmacology Branch, DTP, NCI, 2025).
# Tested on: K24384-001-R-PDC complex spheroids, viability
# Test: Anticancer human tumor K24384-001-R-PDC patient-derived pancreatic adenocarcinoma cell line growth inhibition [GQUAD]
# Settings: for IC50: curve of first compound; for viability, T/C: stronger effect = lower value
# Outline: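 Tumor cells were grown as complex spheroids with HUVEC endothelial cells and mesenchymal stem cells as stroma. G-quadruplex stabilizers were combined with targeted agents over half-log dilutions from near the clinical Cmax, or from 10 microM.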
# [1] = second compound 0.0316 µM, first compound 0.0316 µM
# [2] = second compound 0.0316 µM, first compound 0.316 µM
# [3] = second compound 0.1 µM, first compound 0.0316 µM
# [4] = second compound 0.1 µM, first compound 0.316 µM
# [5] = second compound 0.316 µM, first compound 0.0316 µM
# [6] = second compound 0.316 µM, first compound 0.316 µM
# [7] = second compound 1 µM, first compound 0.0316 µM
# [8] = second compound 1 µM, first compound 0.316 µM
# [9] = second compound 3.16 µM, first compound 0.0316 µM
# [10] = second compound 3.16 µM, first compound 0.316 µM
# [11] = second compound 10 µM, first compound 0.0316 µM
# [12] = second compound 10 µM, first compound 0.316 µM
# [13] = second compound 0.0316 µM, first compound 0.1 µM
# [14] = second compound 0.0316 µM, first compound 1 µM
# [15] = second compound 0.0316 µM, first compound 3.16 µM
# [16] = second compound 0.0316 µM, first compound 10 µM
# [17] = second compound 0.1 µM, first compound 0.1 µM
# [18] = second compound 0.1 µM, first compound 1 µM
# [19] = second compound 0.1 µM, first compound 3.16 µM
# [20] = second compound 0.1 µM, first compound 10 µM
# [21] = second compound 0.316 µM, first compound 0.1 µM
# [22] = second compound 0.316 µM, first compound 1 µM
# [23] = second compound 0.316 µM, first compound 3.16 µM
# [24] = second compound 0.316 µM, first compound 10 µM
# [25] = second compound 1 µM, first compound 0.1 µM
# [26] = second compound 1 µM, first compound 1 µM
# [27] = second compound 1 µM, first compound 3.16 µM
# [28] = second compound 1 µM, first compound 10 µM
# [29] = second compound 3.16 µM, first compound 0.1 µM
# [30] = second compound 3.16 µM, first compound 1 µM
# [31] = second compound 3.16 µM, first compound 3.16 µM
# [32] = second compound 3.16 µM, first compound 10 µM
# [33] = second compound 10 µM, first compound 0.1 µM
# [34] = second compound 10 µM, first compound 1 µM
# [35] = second compound 10 µM, first compound 3.16 µM
# [36] = second compound 10 µM, first compound 10 µM
# 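Note: spheroids exposed to compounds for seven days.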
compound,measurement,setting,value
Cc1[nH]c2ccccc2c1CCNCc1ccc(/C=C/C(=O)NO)cc1 + Cc1[nH]c2ccc(F)cc2c1-c1nc2c3cccnc3c3ncccc3c2[nH]1,IC50,second compound 0.0316 µM,0.139 µM
same,IC50,second compound 0.1 µM,0.138 µM
same,IC50,second compound 0.316 µM,0.121 µM
same,IC50,second compound 1 µM,0.124 µM
same,IC50,second compound 3.16 µM,0.128 µM
same,IC50,second compound 10 µM,0.134 µM
same,"viability, T/C","second compound 0.0316 µM, first compound 0.000999 µM",103%
same,"viability, T/C","second compound 0.0316 µM, first compound 0.00316 µM",111%
same,"viability, T/C","second compound 0.0316 µM, first compound 0.00999 µM",119%
same,"viability, T/C",[1],103%
same,"viability, T/C","second compound 0.0316 µM, first compound 0.0999 µM",67.9%
same,"viability, T/C",[2],5.6%
same,"viability, T/C","second compound 0.1 µM, first compound 0.000999 µM",99.1%
same,"viability, T/C","second compound 0.1 µM, first compound 0.00316 µM",95.2%
same,"viability, T/C","second compound 0.1 µM, first compound 0.00999 µM",98.7%
same,"viability, T/C",[3],99.6%
same,"viability, T/C","second compound 0.1 µM, first compound 0.0999 µM",66.7%
same,"viability, T/C",[4],7.11%
same,"viability, T/C","second compound 0.316 µM, first compound 0.000999 µM",95%
same,"viability, T/C","second compound 0.316 µM, first compound 0.00316 µM",92.9%
same,"viability, T/C","second compound 0.316 µM, first compound 0.00999 µM",101%
same,"viability, T/C",[5],103%
same,"viability, T/C","second compound 0.316 µM, first compound 0.0999 µM",58.6%
same,"viability, T/C",[6],5.93%
same,"viability, T/C","second compound 1 µM, first compound 0.000999 µM",91.3%
same,"viability, T/C","second compound 1 µM, first compound 0.00316 µM",91.8%
same,"viability, T/C","second compound 1 µM, first compound 0.00999 µM",124%
same,"viability, T/C",[7],118%
same,"viability, T/C","second compound 1 µM, first compound 0.0999 µM",60.1%
same,"viability, T/C",[8],7.14%
same,"viability, T/C","second compound 3.16 µM, first compound 0.000999 µM",81.3%
same,"viability, T/C","second compound 3.16 µM, first compound 0.00316 µM",87.7%
same,"viability, T/C","second compound 3.16 µM, first compound 0.00999 µM",77.3%
same,"viability, T/C",[9],94.4%
same,"viability, T/C","second compound 3.16 µM, first compound 0.0999 µM",61.1%
same,"viability, T/C",[10],8.67%
same,"viability, T/C","second compound 10 µM, first compound 0.000999 µM",77.2%
same,"viability, T/C","second compound 10 µM, first compound 0.00316 µM",72.9%
same,"viability, T/C","second compound 10 µM, first compound 0.00999 µM",77.2%
same,"viability, T/C",[11],118%
same,"viability, T/C","second compound 10 µM, first compound 0.0999 µM",65.4%
same,"viability, T/C",[12],5.58%
C=CC(=O)N1CCN(c2nc(=O)n(-c3c(C)ccnc3C(C)C)c3nc(-c4c(O)cccc4F)c(F)cc23)C(C)C1 (stereo unspecified) + CN(C)c1ccc(Nc2c3ccc(NC(=O)CCN4CCCC4)cc3nc3cc(NC(=O)CCN4CCCC4)ccc23)cc1,IC50,second compound 0.0316 µM,> 10 µM
same,IC50,second compound 0.1 µM,> 10 µM
same,IC50,second compound 0.316 µM,> 10 µM
same,IC50,second compound 1 µM,> 10 µM
same,IC50,second compound 3.16 µM,> 10 µM
same,IC50,second compound 10 µM,> 10 µM
same,"viability, T/C",[1],95.5%
same,"viability, T/C",[13],93.2%
same,"viability, T/C",[2],107%
same,"viability, T/C",[14],104%
same,"viability, T/C",[15],99.6%
same,"viability, T/C",[16],93.3%
same,"viability, T/C",[3],100%
same,"viability, T/C",[17],102%
same,"viability, T/C",[4],112%
same,"viability, T/C",[18],121%
same,"viability, T/C",[19],123%
same,"viability, T/C",[20],87.8%
same,"viability, T/C",[5],100%
same,"viability, T/C",[21],101%
same,"viability, T/C",[6],105%
same,"viability, T/C",[22],96.6%
same,"viability, T/C",[23],128%
same,"viability, T/C",[24],98.6%
same,"viability, T/C",[7],101%
same,"viability, T/C",[25],129%
same,"viability, T/C",[8],113%
same,"viability, T/C",[26],115%
same,"viability, T/C",[27],147%
same,"viability, T/C",[28],85.7%
same,"viability, T/C",[9],101%
same,"viability, T/C",[29],100%
same,"viability, T/C",[10],100%
same,"viability, T/C",[30],93%
same,"viability, T/C",[31],110%
same,"viability, T/C",[32],79%
same,"viability, T/C",[11],81.6%
same,"viability, T/C",[33],99.7%
same,"viability, T/C",[12],82.3%
same,"viability, T/C",[34],109%
same,"viability, T/C",[35],89%
same,"viability, T/C",[36],62.2%
CC1COCCN1c1cc(C2(O)CC3CCC(C2)O3)c2cnn(-c3ccn[nH]3)c2n1 (stereo unspecified) + Cc1[nH]c2ccc(F)cc2c1-c1nc2c3cccnc3c3ncccc3c2[nH]1,IC50,second compound 0.0316 µM,0.23 µM
same,IC50,second compound 0.1 µM,0.209 µM
same,IC50,second compound 0.316 µM,0.179 µM
same,IC50,second compound 1 µM,0.182 µM
same,IC50,second compound 3.16 µM,0.139 µM
same,IC50,second compound 10 µM,0.0611 µM
same,"viability, T/C",[1],75.8%
same,"viability, T/C",[13],57.4%
same,"viability, T/C",[2],51.6%
same,"viability, T/C",[14],27%
same,"viability, T/C",[15],24.5%
same,"viability, T/C",[16],19.8%
same,"viability, T/C",[3],65.6%
same,"viability, T/C",[17],82.1%
same,"viability, T/C",[4],36.4%
same,"viability, T/C",[18],30.2%
same,"viability, T/C",[19],33.5%
same,"viability, T/C",[20],22.7%
same,"viability, T/C",[5],69%
same,"viability, T/C",[21],54.9%
same,"viability, T/C",[6],44.2%
same,"viability, T/C",[22],32.4%
same,"viability, T/C",[23],32.9%
same,"viability, T/C",[24],19.1%
same,"viability, T/C",[7],77.3%
same,"viability, T/C",[25],59.7%
same,"viability, T/C",[8],37.2%
same,"viability, T/C",[26],35.2%
same,"viability, T/C",[27],32.4%
same,"viability, T/C",[28],18.1%
same,"viability, T/C",[9],53.8%
same,"viability, T/C",[29],63.4%
same,"viability, T/C",[10],28.4%
same,"viability, T/C",[30],30.5%
same,"viability, T/C",[31],28.7%
same,"viability, T/C",[32],13.2%
same,"viability, T/C",[11],55.3%
same,"viability, T/C",[33],50.9%
same,"viability, T/C",[12],26.2%
same,"viability, T/C",[34],28.4%
same,"viability, T/C",[35],22.9%
same,"viability, T/C",[36],9.97%
